Data published in patent US7166744B2, “Retinoid derivatives and methods for producing said compounds and anti-cancer pharmaceutical composition comprising said compounds” (Chebigen Co., Ltd., priority 2001, dated 2007).
Entries after “also recorded” stand apart in the source; their conditions may differ.

Assays:
Type in all cases: cell-based
colon cancer cells = experiment: MTT proliferation assay, colon cancer cells (Table 1); details: 48 hours, concentration required for 50% growth inhibition, read-out: IC50, activities of various retinoid derivatives in colon cancer cells
Experimental: (§1) The effects of test compounds on proliferation of various cancer cells was examined by 3-(4,5-dimethylthiazol-2-yl)-2,5-diphenyltetrazolium bromide (MTT, Sigma) assay in a dose dependent manner. In the MTT assay, colon, liver, cervix, ovary, and breast cancer cell lines were treated with test compounds at various concentrations. Living cancer cells reduce MTT to dark blue MTT formazan that would be measured by absorbance.
(§2) Colon cancer cells, HCT116, DLD-1 and HT29, cervix cancer cells, HeLa and CaSki, ovary cancer cells, SKOV-3, 2774 and OVCAR-3, liver cancer cells, SK-Hep-1, PLCPRF5 and HepG2, and breast cancer cells, ZR75-1 and MDA-MB 231 were seeded at an initial density of 3000 cells per well in 96-well plates. After attachment of cells to the walls of the wells, the medium containing fresh retinoid was treated with various concentrations (0.5 μM, 1 μM, 2.5 μM, 5 μM, 10 μM) for 48 hours. 50 μl of MTT solution (2 mg/ml in PBS) was added to cell culture media. The reaction micture was incubated at 37° C. in a 5% CO2 atmosphere for 4 hours. The supernatant was removed and 150 μl of DMSO was added. The optical density was measured spectrophotometrically at 550 nm. […] For other retinoid derivatives according to the present invention, absorbances were measured by this procedure and IC50 values, concentrations required for 50% growth inhibition, were determined.

[1] = test system: HCT116 colon cancer cells; experiment: MTT proliferation assay, HCT116
Experimental: as §1, §2

[2] = test system: SK-Hep-1 liver cancer cells; experiment: MTT proliferation assay, SK-Hep-1
Experimental: as §1, §2

[3] = test system: MCF-7 breast cancer cells; experiment: MTT proliferation assay, MCF-7; details: 48 hours
[4] = test system: MCF-7 breast cancer cells; experiment: DNA fragmentation assay (agarose gel), MCF-7; details: MCF-7, 2.5, 5.0, 10 μM, 48 hours
Experimental: After treated with each retinoid derivative at various concentrations (2.5, 5.0, 10 μM) for 48 hours, HCT116 or MCF-7 cells were poured in 1 mL of PBS and centrifuged at a rate of 13,000 rpm at 4° C. for 1 min. The resulting cell pellets were resuspended in 700 μl of lysis buffer (500 mM Tris, 100 mM EDTA, 0.5% SDS) containing 17.5 μl of proteinase K (20 mg/ml), and incubated on 55° C. water bath for 3 hours. The lysates were mixed with 700 μl of phenol solution while slowly stirring and centrifuged at 12,000 rpm for 5 min. The supernatants were separated and extracted with phenol once more. The supernatants were mixed with 600 μl of 100% ethanol and 60 μl of 3M NaOAc (pH 7.0) and left at −20° C. for 2 hours. The supernatants were removed by centrifugation at 12,000 rpm for 10 min to obtain pellets. After 70% ethanol washing and drying, DNA pellet was resuspended in 100 μl of TE (Tris-EDTA) buffer and treated with RNase A. The obtained samples were electrophoresed for 2 hours at 75 V on 1.8% agarose gels.

MMP-2 mRNA expression = experiment: RT-PCR of MMP-2 mRNA in HCT116; details: HCT116, 1 μM; for inhibition of MMP-2 mRNA expression: 36 hours
Experimental: Previously, it was shown that the synthetic retinoid derivatives inhibit the transcriptional activity of AP-1. Also, it is well known that MMP (matrix metalloproteinase), a main target gene of AP-1 is involved in metastasis of cancer cells. Therefore, the inhibitive effects of the retinoid derivatives on metastasis of cancer was examined by RT-PCR analysis. Colon cancer HCT116 cells were treated with 1 μM retinoid for 36 hours. RNA was isolated from the cells and mRNA expression levels of MMP-1, -2 and -3 were analyzed by RT-PCR. […] As the control, GAPDH was used and it was confirmed that its expression was not affected by retinoid. Meanwhile, the expression level of MMP-3 was affected weakly by KCBG40, intermediately by KCBG41 but strongly by KCBG10 (FIG. 9).
RNA was isolated from the cells and mRNA expression levels of MMP-1, -2 and -3 were analyzed by RT-PCR (FIG. 14).

RARα = target: T1, RARα (Homo sapiens, UniProt P10276); experiment: CAT reporter assay, RARα; details: 1 μM, control = 1.0; for expression level of CAT enzyme, RARα −: column '−'
T1 construct: expressed in transfected cells
T1 sequence (P10276 1-462): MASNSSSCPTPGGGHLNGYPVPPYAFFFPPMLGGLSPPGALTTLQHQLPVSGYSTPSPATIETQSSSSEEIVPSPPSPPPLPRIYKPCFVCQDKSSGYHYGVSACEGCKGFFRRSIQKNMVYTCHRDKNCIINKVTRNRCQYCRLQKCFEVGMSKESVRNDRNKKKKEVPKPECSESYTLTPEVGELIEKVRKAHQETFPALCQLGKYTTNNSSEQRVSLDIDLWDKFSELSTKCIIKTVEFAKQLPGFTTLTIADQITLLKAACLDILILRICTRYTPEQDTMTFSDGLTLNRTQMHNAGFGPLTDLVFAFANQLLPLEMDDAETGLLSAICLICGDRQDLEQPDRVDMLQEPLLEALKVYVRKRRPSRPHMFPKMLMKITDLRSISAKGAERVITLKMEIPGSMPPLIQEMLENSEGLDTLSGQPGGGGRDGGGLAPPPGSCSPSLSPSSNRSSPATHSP
Description: (§3) In order to confirm the effect of KCBG60 according to the present invention on retinoid receptor activity, cells were cotransfected with expression vectors of receptor subfamilies and reporter genes. As the reporter gene, chloramphenicol acetyltransferase (CAT) with a transcription control site reactive to respective receptors was used.

RARβ = target: T2, RARβ (Homo sapiens, UniProt P10826); experiment: CAT reporter assay, RARβ; details: 1 μM, control = 1.0; for expression level of CAT enzyme, RARβ −: column '−'
T2 construct: expressed in transfected cells
T2 sequence (P10826 1-455): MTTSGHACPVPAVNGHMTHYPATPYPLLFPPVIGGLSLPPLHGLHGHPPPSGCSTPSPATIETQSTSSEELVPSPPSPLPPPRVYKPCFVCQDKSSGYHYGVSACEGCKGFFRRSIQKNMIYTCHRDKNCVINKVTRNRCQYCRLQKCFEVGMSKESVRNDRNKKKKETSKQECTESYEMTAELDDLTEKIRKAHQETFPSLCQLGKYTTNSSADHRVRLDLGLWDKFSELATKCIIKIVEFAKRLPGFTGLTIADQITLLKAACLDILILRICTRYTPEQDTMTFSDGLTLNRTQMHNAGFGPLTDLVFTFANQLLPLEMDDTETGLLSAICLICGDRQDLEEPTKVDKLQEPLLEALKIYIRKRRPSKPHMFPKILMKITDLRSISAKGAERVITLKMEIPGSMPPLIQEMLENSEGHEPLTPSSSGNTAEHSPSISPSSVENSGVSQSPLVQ
Description: as §3

| Compound | IC50 (colon cancer cells) [µM] | IC50 ([1]; 48 hours) [µM] | IC50 ([2]; 48 hours) [µM] | IC50 [3] [µM] | DNA ladder (DNA fragmentation) [4] | inhibition of MMP-2 mRNA expression (MMP-2 mRNA expression) | effect on expression of MMP-2 (MMP-2 mRNA expression; 24 hours) | expression level of CAT enzyme, RARα + (RARα) | expression level of CAT enzyme, RARα − (RARα) | expression level of CAT enzyme, RARβ + (RARβ) | expression level of CAT enzyme, RARβ − (RARβ) | MMP-2 inhibitory expression level compared to ATRA (MMP-2 mRNA expression; 24 hours) | IC50 ([1]; Homo sapiens, HCT-116, 48 hours) [µM] | IC50 ([2]; Homo sapiens, SK-HEP1, 48 hours) [µM] |
| --- | --- | --- | --- | --- | --- | --- | --- | --- | --- | --- | --- | --- | --- | --- |
| CCCC(=O)Oc1cc(O)ccc1NC(=O)/C=C(C)/C=C/C=C(C)/C=C/C1=C(C)CCCC1(C)C [KCBG10, 2.2-[(2E,4E,6E,8E)-3,7-Dimethyl-9-(2,6,6-trimethylcyclohex-1-enyl)-nona-2,4,6,8-tetraenoylamino]-5-hydroxyphenylbutanoate] | 3 | 3 | 4.5 | 1.3 | DNA band of the ladder shape caused by DNA fragmentation was well detected; also recorded: at a low concentration showed DNA fragmentation | weakly | – | – | – | – | – | – | – | – |
| CCCC(=O)Nc1cc(NC(=O)/C=C(C)/C=C/C=C(C)/C=C/C2=C(C)CCCC2(C)C)ccc1O [KCBG41, (2E,4E,6E,8E)-[3,7-dimethyl-9-(2,6,6-trimethylcyclohex-1-enyl)-nona-2,4,6,8-tetraenoylamino]-(3-butyrylamino-4-hydroxy)phenylamide] | 0.3 | 1.4 | 0.8 | 5.5 | DNA band of the ladder shape caused by DNA fragmentation was well detected | strongly | – | – | – | – | – | – | – | – |
| phenyl butylate | – | – | – | – | – | – | did not affect expression of MMP-2 at all | 0.8 | 0.7 | 0.9 | 0.7 | – | – | – |
| CC1=C(/C=C/C(C)=C/C=C/C(C)=C/C(=O)Nc2ccc(O)cc2)C(C)(C)CCC1 [HPR, (2E,4E,6E,8E)-[3,7-dimethyl-9-(2,6,6-trimethylcyclohex-1-enyl)-nona-2,4,6,8-tetraenoylamino]-4-hydroxyphenylamide] | 6 to 8 | 6 to 8 | > 100 | 7 | did not show any DNA ladder | affected very little | – | 30.4 | 9.9 | 25.3 | 9.1 | – | – | – |
| CCCC(=O)Oc1ccc(NC(=O)/C=C(C)/C=C/C=C(C)/C=C/C2=C(C)CCCC2(C)C)cc1 [KCBG60] | – | – | – | – | – | – | – | 1.1 | 0.7 | 1.0 | 0.8 | two times higher | – | – |
| CC1=C(/C=C/C(C)=C/C=C/C(C)=C/C(=O)O)C(C)(C)CCC1 [ATRA, All-trans-retinoic acid, reference compound] | 20 | – | – | – | – | – | – | 66.7 | 17.3 | 65.2 | 17.3 | – | 20 | > 500 |
